Results published in ChEMBL document CHEMBL3046135, “Iodine (III)-mediated synthesis of some 2-aryl/hetarylbenzoxazoles as antibacterial/antifungal agents” (2010).
Calls of active or inactive are those of the source. The calls are words filed in the database; no cut-off is given here.

Columns and labels:
Type in all cases: functional
Escherichia coli [1] = test: Antibacterial activity against Escherichia coli MTCC 51 at 10 ug/ml after 24 hr by agar well diffusion method
[2] = test system: Geobacillus stearothermophilus; test: Antibacterial activity against Geobacillus stearothermophilus MTCC 8508 at 50 ug/ml after 24 hr by agar well diffusion method
[3] = test system: Geobacillus stearothermophilus; test: Antibacterial activity against Geobacillus stearothermophilus MTCC 8508 at 100 ug/ml after 24 hr by agar well diffusion method
Aspergillus niger [4] = test: Antifungal activity against Aspergillus niger at 10 ug/ml after 96 hr
Aspergillus niger [5] = test: Antifungal activity against Aspergillus niger at 50 ug/ml after 96 hr
Aspergillus flavus [6] = test: Antifungal activity against Aspergillus flavus at 50 ug/ml after 96 hr
Pseudomonas putida [7] = test: Antibacterial activity against Pseudomonas putida at 50 ug/ml after 24 hr by agar well diffusion method
Escherichia coli [8] = test: Antibacterial activity against Escherichia coli MTCC 51 at 50 ug/ml after 24 hr by agar well diffusion method
Bacillus subtilis [9] = test: Antibacterial activity against Bacillus subtilis MTCC 121 at 100 ug/ml after 24 hr by agar well diffusion method
[10] = test system: Geobacillus stearothermophilus; test: Antibacterial activity against Geobacillus stearothermophilus MTCC 8508 at 10 ug/ml after 24 hr by agar well diffusion method
Aspergillus flavus [11] = test: Antifungal activity against Aspergillus flavus at 10 ug/ml after 96 hr
Pseudomonas putida [12] = test: Antibacterial activity against Pseudomonas putida at 10 ug/ml after 24 hr by agar well diffusion method
Aspergillus niger [13] = test: Antifungal activity against Aspergillus niger at 100 ug/ml after 96 hr
Pseudomonas putida [14] = test: Antibacterial activity against Pseudomonas putida at 100 ug/ml after 24 hr by agar well diffusion method
Escherichia coli [15] = test: Antibacterial activity against Escherichia coli MTCC 51 at 100 ug/ml after 24 hr by agar well diffusion method
Bacillus subtilis [16] = test: Antibacterial activity against Bacillus subtilis MTCC 121 at 10 ug/ml after 24 hr by agar well diffusion method
Aspergillus flavus [17] = test: Antifungal activity against Aspergillus flavus at 100 ug/ml after 96 hr
Bacillus subtilis [18] = test: Antibacterial activity against Bacillus subtilis MTCC 121 at 50 ug/ml after 24 hr by agar well diffusion method

Row | SMILES | diameter of the inhibition zone (DIZ) (Escherichia coli [1]) | diameter of the inhibition zone (DIZ) [2] | diameter of the inhibition zone (DIZ) [3] | inhibition at 10 µg/mL (Aspergillus niger [4]) | inhibition at 50 µg/mL (Aspergillus niger [5]) | inhibition at 50 µg/mL (Aspergillus flavus [6]) | diameter of the inhibition zone (DIZ) (Pseudomonas putida [7]) | diameter of the inhibition zone (DIZ) (Escherichia coli [8]) | diameter of the inhibition zone (DIZ) (Bacillus subtilis [9]) | diameter of the inhibition zone (DIZ) [10] | inhibition at 10 µg/mL (Aspergillus flavus [11]) | diameter of the inhibition zone (DIZ) (Pseudomonas putida [12]) | inhibition at 100 µg/mL (Aspergillus niger [13]) | diameter of the inhibition zone (DIZ) (Pseudomonas putida [14]) | diameter of the inhibition zone (DIZ) (Escherichia coli [15]) | diameter of the inhibition zone (DIZ) (Bacillus subtilis [16]) | inhibition at 100 µg/mL (Aspergillus flavus [17]) | diameter of the inhibition zone (DIZ) (Bacillus subtilis [18])
1 | COc1cc(-c2nc3cc(Cl)ccc3o2)ccc1O [4-(5-CHLOROBENZO[D]OXAZOL-2-YL)-2-METHOXYPHENOL] | 9.33% | 21.33% | 31.74% | 8.93% | 5.88% | 51.4% | 26.33% | 21.43% | 31.33% | 10.66% | 29% | 12.66% | 21.9% | 37.33% | 31.33% | 9.33% | 86.2% | 20.43%
2 | c1csc(-c2nc3ccccc3o2)c1 | 11.66% | 20.43% | 31.33% | 41.7% | 64.7% | 63.1% | 24.34% | 26.28% | 31.72% | 10.33% | 21.1% | 9.66% | 82.3% | 33.33% | 36.66% | 12.66% | 88.5% | 21.26%
3 | Cc1ccc(-c2nc3cc(Cl)ccc3o2)cc1 | 18.62% | 30.87% | 43.33% | 4.19% | 7.47% | 43.2% | 54.56% | 32.77% | 42.13% | 17.92% | 20.1% | 14.22% | 21.4% | 73.47% | 43.33% | 17.22% | 66.9% | 31.37%
4 | Clc1ccc2oc(-c3cccs3)nc2c1 | 17.74% | 32.66% | 39.66% | 4.89% | 5.88% | 47.4% | 33.66% | 31.77% | 41.66% | 21.33% | 21.1% | 19.66% | 11.8% | 44.77% | 43.33% | 19.66% | 84.2% | 30.53%
5 | C[C@@H]1C[C@@H]([C@H](O)CC2CC(=O)NC(=O)C2)C(=O)[C@@H](C)C1 [CYCLOHEXIMIDE] | – | – | – | 11.8% | 23.5% | 63.1% | – | – | – | – | 15.8% | – | 35.3% | – | – | – | 78.9% | –
6 | Clc1ccc2oc(-c3ccccc3)nc2c1 | 19.92% | 27.21% | 36.44% | 8.93% | 5.88% | 51.4% | 57.66% | 33.87% | 36.74% | 10.66% | 29% | 15.21% | 21.9% | 76.33% | 45.33% | 10.21% | 86.2% | 26.47%
7 | Clc1ccc2oc(-c3cccnc3)nc2c1 | 12.66% | 21.43% | 32.33% | 17.6% | 41.7% | 26.3% | 25.33% | 27.33% | 33.33% | 11.33% | 15.8% | 9.66% | 76.5% | 35.33% | 36.74% | 13.33% | 78.9% | 22.16%
8 | O=C(N[C@H](CO)[C@H](O)c1ccc([N+](=O)[O-])cc1)C(Cl)Cl [CHLORAMPHENICOL] | 20.33% | 53.2% | 77.2% | – | – | – | 43.4% | 50.4% | 64.2% | 25.33% | – | 19.33% | – | 71.24% | 65.4% | 26.33% | – | 47.2%
9 | Cc1ccc(-c2nc3ccccc3o2)s1 | 12.45% | 12.66% | 19.66% | 4.89% | 5.23% | 51.6% | 22.33% | 21.74% | 17.33% | inactive | 24.3% | 13.47% | 16.6% | 35.45% | 34.29% | inactive | 88% | 11.33%
10 | Cc1ccc(-c2nc3cc(Cl)ccc3o2)s1 [5-CHLORO-2-(5-METHYLTHIOPHEN-2-YL)BENZO[D]OXAZOLE] | inactive | 12.66% | 18.47% | 12.4% | 63.9% | 24.9% | 18.33% | 17.44% | 16.66% | inactive | 13.7% | inactive | 71.9% | 32.66% | 31.74% | inactive | 37.5% | 10.33%
11 | O=[N+]([O-])c1ccc(-c2nc3cc(Cl)ccc3o2)cc1 | inactive | 12.26% | 19.37% | 43.2% | 66.9% | 49.6% | 18.13% | 17.14% | 17.22% | inactive | 19.9% | inactive | 73.6% | 31.16% | 30.24% | inactive | 78.5% | 10.13%
12 | Cc1ccsc1-c1nc2cc(Cl)ccc2o1 [5-CHLORO-2-(3-METHYLTHIOPHEN-2-YL)BENZO[D]OXAZOLE] | 10.33% | 23.44% | 31.84% | 17.5% | 47% | 36.8% | 25.67% | 24.56% | 29.33% | 12.66% | 21.1% | 12.12% | 76.5% | 35.06% | 33.17% | 10.34% | 84.2% | 21.67%
